Data reported in PubChem BioAssay (NCI).
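Step 1: Grow cells in 96-well plates. Step 2: Expose to compound for 48 hours at 5 concentrations. Step 3: Interpolate endpoints linearly; if unreached, use highest concentration. GI50 is the concentration that inhibits growth by half. Definition used: TGI = concentration required for complete inhibition of growth.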

Key:
Experiment in all cases: DTP human tumour cell line panel, 48 h
[1] = tested on: RPMI-8226 leukemia
[2] = tested on: MCF7 breast
[3] = tested on: TK-10 renal
[4] = tested on: UO-31 renal
[5] = tested on: LOX IMVI melanoma
[6] = tested on: SF-295 CNS
[7] = tested on: RXF 393 renal
[8] = tested on: NCI-H23 lung
[9] = tested on: EKVX NSCLC
[10] = tested on: M14 melanoma
[11] = tested on: T-47D breast
[12] = tested on: SF-539 CNS
[13] = tested on: HT29 colon
[14] = tested on: SF-268 CNS
[15] = tested on: MDA-MB-435
[16] = tested on: MDA-MB-468 breast
[17] = tested on: OVCAR-5 ovarian
[18] = tested on: IGROV1 ovarian
[19] = tested on: BT-549 breast
[20] = tested on: KM12 colon
[21] = tested on: CCRF-CEM leukemia
[22] = tested on: HCC-2998 colon
[23] = tested on: A498 renal
[24] = tested on: SR leukemia
[25] = tested on: HL-60(TB) leukemia
[26] = tested on: SK-OV-3 ovarian
[27] = tested on: CAKI-1 renal
[28] = tested on: PC-3 prostate
[29] = tested on: HOP-92 NSCLC
[30] = tested on: COLO 205 colon
[31] = tested on: OVCAR-4 ovarian
[32] = tested on: UACC-62 melanoma
[33] = tested on: U251 CNS
[34] = tested on: A549 NSCLC
[35] = tested on: DU-145 prostate
[36] = tested on: OVCAR-3 ovarian
[37] = tested on: SK-MEL-28 melanoma
[38] = tested on: HCT-15 colon
[39] = tested on: NCI-H522 lung
[40] = tested on: SNB-75 CNS
[41] = tested on: MOLT-4 leukemia
[42] = tested on: HCT-116 colon
[43] = tested on: MALME-3M melanoma
[44] = tested on: ACHN renal
[45] = tested on: HOP-62 NSCLC
[46] = tested on: OVCAR-8 ovarian
[47] = tested on: NCI-H226 lung
[48] = tested on: SN12C renal
[49] = tested on: SNB-19 CNS
[50] = tested on: UACC-257 melanoma
[51] = tested on: 786-0 renal
[52] = tested on: NCI/ADR-RES ovarian
[53] = tested on: SK-MEL-2 melanoma
[54] = tested on: SK-MEL-5 melanoma
[55] = tested on: HS 578T breast
[56] = tested on: NCI-H460 lung
[57] = tested on: MDA-MB-231 breast
[58] = tested on: SW-620 colon
[59] = tested on: K-562 leukemia

With Cc1ccc(NC(=O)N/N=C/c2c[nH]c3ccccc23)c(C)c1 as the compound, how does the GI50 [1] read?
The GI50 was 373 nM.

And the TGI [1]?
Its TGI is 25600 nM.

What about the GI50 [2] of the same compound?
Its GI50 is 235 nM.

And the TGI [2]?
The TGI was 27900 nM.

What about the GI50 [3] of the same compound?
Its GI50 is 2590 nM.

And the TGI [3]?
Its TGI is 39600 nM.

What about the GI50 [4] of the same compound?
Its GI50 is 458 nM.

What about the TGI [4] of the same compound?
The TGI was greater than 67000 nM.

And the GI50 [5]?
Its GI50 is 365 nM.

What about the TGI [5] of the same compound?
Its TGI is 8330 nM.

What about the GI50 [6] of the same compound?
The GI50 was 239 nM.

What about the TGI [6] of the same compound?
The TGI was 12000 nM.

What about the GI50 [7] of the same compound?
Its GI50 is 267 nM.

What about the TGI [7] of the same compound?
Its TGI is 6230 nM.

And the GI50 [8]?
Its GI50 is 418 nM.

And the TGI [8]?
The TGI was 12200 nM.

And the GI50 [9]?
Its GI50 is 469 nM.

What about the TGI [9] of the same compound?
The TGI was greater than 100000 nM.

And the GI50 [10]?
The GI50 was 175 nM.

And the TGI [10]?
The TGI was 12800 nM.

And the GI50 [11]?
Its GI50 is 363 nM.

And the TGI [11]?
Its TGI is 78000 nM.

And the GI50 [12]?
Its GI50 is 217 nM.

And the TGI [12]?
The TGI was 700 nM.

And the GI50 [13]?
Its GI50 is 164 nM.

What about the TGI [13] of the same compound?
Its TGI is 1040 nM.

What about the GI50 [14] of the same compound?
The GI50 was 828 nM.

What about the TGI [14] of the same compound?
Its TGI is 23400 nM.

And the GI50 [15]?
Its GI50 is 28.1 nM.

What about the TGI [15] of the same compound?
The TGI was 110 nM.

What about the GI50 [16] of the same compound?
The GI50 was 178 nM.

And the TGI [16]?
Its TGI is 543 nM.

And the GI50 [17]?
The GI50 was 565 nM.

What about the TGI [17] of the same compound?
Its TGI is 15500 nM.

And the GI50 [18]?
The GI50 was 378 nM.

And the TGI [18]?
Its TGI is 20100 nM.

And the GI50 [19]?
The GI50 was 596 nM.

And the TGI [19]?
Its TGI is 23900 nM.

And the GI50 [20]?
Its GI50 is 205 nM.

And the TGI [20]?
The TGI was 10100 nM.

And the GI50 [21]?
Its GI50 is 308 nM.

What about the TGI [21] of the same compound?
Its TGI is greater than 40000 nM.

What about the GI50 [22] of the same compound?
The GI50 was 492 nM.

What about the TGI [22] of the same compound?
The TGI was 4530 nM.

And the GI50 [23]?
Its GI50 is 12700 nM.

And the TGI [23]?
The TGI was 38400 nM.

What about the GI50 [24] of the same compound?
Its GI50 is 33.6 nM.

And the TGI [24]?
Its TGI is greater than 21900 nM.

And the GI50 [25]?
Its GI50 is 99.7 nM.

What about the TGI [25] of the same compound?
The TGI was 2730 nM.

And the GI50 [26]?
The GI50 was 391 nM.

What about the TGI [26] of the same compound?
Its TGI is 25300 nM.

What about the GI50 [27] of the same compound?
Its GI50 is 261 nM.

And the TGI [27]?
The TGI was greater than 44000 nM.

What about the GI50 [28] of the same compound?
The GI50 was 517 nM.

What about the TGI [28] of the same compound?
The TGI was greater than 100000 nM.

What about the GI50 [29] of the same compound?
The GI50 was 1600 nM.

What about the TGI [29] of the same compound?
Its TGI is 19000 nM.

What about the GI50 [30] of the same compound?
The GI50 was 361 nM.

And the TGI [30]?
The TGI was 1590 nM.

What about the GI50 [31] of the same compound?
Its GI50 is 5490 nM.

What about the TGI [31] of the same compound?
The TGI was greater than 100000 nM.

And the GI50 [32]?
The GI50 was 151 nM.

What about the TGI [32] of the same compound?
The TGI was 5270 nM.

What about the GI50 [33] of the same compound?
Its GI50 is 316 nM.

And the TGI [33]?
Its TGI is 12800 nM.

What about the GI50 [34] of the same compound?
The GI50 was 588 nM.

And the TGI [34]?
Its TGI is 45900 nM.

And the GI50 [35]?
Its GI50 is 432 nM.

And the TGI [35]?
Its TGI is 19400 nM.

And the GI50 [36]?
Its GI50 is 138 nM.

What about the TGI [36] of the same compound?
Its TGI is 1800 nM.

And the GI50 [37]?
The GI50 was 1450 nM.

And the TGI [37]?
Its TGI is greater than 79300 nM.

What about the GI50 [38] of the same compound?
Its GI50 is 78.5 nM.

What about the TGI [38] of the same compound?
Its TGI is greater than 34900 nM.

What about the GI50 [39] of the same compound?
Its GI50 is 37.9 nM.

What about the TGI [39] of the same compound?
The TGI was 327 nM.

What about the GI50 [40] of the same compound?
Its GI50 is 343 nM.

And the TGI [40]?
Its TGI is 5600 nM.

And the GI50 [41]?
The GI50 was 269 nM.

And the TGI [41]?
Its TGI is greater than 32800 nM.

And the GI50 [42]?
The GI50 was 245 nM.

What about the TGI [42] of the same compound?
The TGI was 4790 nM.

And the GI50 [43]?
The GI50 was 241 nM.

And the TGI [43]?
The TGI was 19100 nM.

And the GI50 [44]?
The GI50 was 637 nM.

And the TGI [44]?
Its TGI is greater than 57600 nM.

What about the GI50 [45] of the same compound?
The GI50 was 343 nM.

What about the TGI [45] of the same compound?
Its TGI is 26200 nM.

And the GI50 [46]?
Its GI50 is 378 nM.

And the TGI [46]?
The TGI was 3110 nM.

What about the GI50 [47] of the same compound?
Its GI50 is 2500 nM.

And the TGI [47]?
Its TGI is greater than 100000 nM.

What about the GI50 [48] of the same compound?
Its GI50 is 419 nM.

What about the TGI [48] of the same compound?
Its TGI is 8970 nM.

And the GI50 [49]?
The GI50 was 554 nM.

What about the TGI [49] of the same compound?
The TGI was 27200 nM.

What about the GI50 [50] of the same compound?
The GI50 was 573 nM.

And the TGI [50]?
The TGI was 47500 nM.

What about the GI50 [51] of the same compound?
Its GI50 is 481 nM.

What about the TGI [51] of the same compound?
Its TGI is 13900 nM.

And the GI50 [52]?
Its GI50 is 68.9 nM.

What about the TGI [52] of the same compound?
The TGI was 631 nM.

And the GI50 [53]?
Its GI50 is 258 nM.

And the TGI [53]?
Its TGI is 627 nM.

And the GI50 [54]?
The GI50 was 226 nM.

What about the TGI [54] of the same compound?
The TGI was 8130 nM.

What about the GI50 [55] of the same compound?
The GI50 was 281 nM.

And the TGI [55]?
Its TGI is 23100 nM.

And the GI50 [56]?
The GI50 was 357 nM.

And the TGI [56]?
Its TGI is 15700 nM.

And the GI50 [57]?
The GI50 was 495 nM.

And the TGI [57]?
Its TGI is 5410 nM.

And the GI50 [58]?
The GI50 was 203 nM.

What about the TGI [58] of the same compound?
Its TGI is greater than 100000 nM.

What about the GI50 [59] of the same compound?
Its GI50 is 41.8 nM.

And the TGI [59]?
Its TGI is greater than 100000 nM.
